B1: WT: wild-type TEM-1 β-lactamase (protein, UniProt P62593 24-286, looked up)
Beta-lactamase TEM: HPETLVKVKDAEDQLGARVGYIELDLNSGKILESFRPEERFPMMSTFKVLLCGAVLSRVDAGQEQLGRRIHYSQNDLVEYSPVTEKHLTDGMTVRELCSAAITMSDNTAANLLLTTIGGPKELTAFLHNMGDHVTRLDRWEPELNEAIPNDERDTTMPAAMATTLRKLLTGELLTLASRQQLIDWMEADKVAGPLLRSALPAGWFIADKSGAGERGSRGIIAALGPDGKPSRIVVIYTTGSQATMDERNRQIAEIGASLIKHW

Key:
[1] = biological target: TEM-1 β-lactamase WT (native enzyme) (Escherichia coli, UniProt P62593); test: DSF shift in Tm after incubation with moxalactam, WT; format: binding; conditions: 100-fold molar excess moxalactam
TEM-1 β-lactamase G238S = TEM-1 β-lactamase G238S (Escherichia coli, UniProt P62593, G236S); test: DSF shift in Tm after incubation with moxalactam, G238S; format: binding; conditions: 100-fold molar excess moxalactam
TEM-1 β-lactamase M182T = TEM-1 β-lactamase M182T (Escherichia coli, UniProt P62593, M180T); test: DSF shift in Tm after incubation with moxalactam, M182T; format: binding; conditions: 100-fold molar excess moxalactam
[2] = biological target: TEM-1 β-lactamase M182T/G238S (Escherichia coli, UniProt P62593, G236S/M180T); test: DSF shift in Tm after incubation with moxalactam, M182T/G238S; format: binding; conditions: 100-fold molar excess moxalactam
[3] = van't Hoff enthalpy of unfolding; format: physicochemical; conditions: Table S1
Sor/CR colloids = format: binding; conditions: concentration of TEM-1 mutant at which 50% of fluorescent L2gd is displaced; 100 nM 5-MF-L2gd, 20 μM Sor/CR colloids

Molecule | lowering of Tm [1] [°C] | destabilization (lowering of Tm) (TEM-1 β-lactamase G238S) [°C] | destabilization (lowering of Tm) (TEM-1 β-lactamase M182T) [°C] | effect on Tm [2] | van't Hoff enthalpy of unfolding [3] [kJ/mol] | EC50 (Sor/CR colloids) [µM]
CO[C@@]1(NC(=O)[C@H](C(=O)O)c2ccc(O)cc2)C(=O)N2C(C(=O)O)=C(CSc3nnnn3C)CO[C@@H]21 [moxalactam] | 4.5 | 1.9 | 4.1 | no substantial effect | – | –
B1 | – | – | – | – | 583.7 | 577 ± 303
